Laboratory results taken from patent US20230312587A1, “PTERIDINONE COMPOUNDS AND USES THEREOF” (Vertex Pharmaceutical Incorporated, priority 2018, published 2023).

target: HEK293 membranes over-expressing WFS-1 (Homo sapiens (Human), UniProt O76024); assay: Radioligand displacement assay (tritiated Compound 136 probe); assay type: binding; settings: displacement of tritiated Compound 136
Outline: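 WFS-1-overexpressing HEK293 membranes were preincubated 10 min with compound, then tritiated probe was added for 90 min at room temperature. Bound probe was collected by filtration on PEI-pretreated GF/B filters, washed and scintillation-counted. IC50 came from a 3-parameter fit of bound probe vs compound concentration.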

Sequence of HEK293 membranes over-expressing WFS-1 (O76024 whole entry): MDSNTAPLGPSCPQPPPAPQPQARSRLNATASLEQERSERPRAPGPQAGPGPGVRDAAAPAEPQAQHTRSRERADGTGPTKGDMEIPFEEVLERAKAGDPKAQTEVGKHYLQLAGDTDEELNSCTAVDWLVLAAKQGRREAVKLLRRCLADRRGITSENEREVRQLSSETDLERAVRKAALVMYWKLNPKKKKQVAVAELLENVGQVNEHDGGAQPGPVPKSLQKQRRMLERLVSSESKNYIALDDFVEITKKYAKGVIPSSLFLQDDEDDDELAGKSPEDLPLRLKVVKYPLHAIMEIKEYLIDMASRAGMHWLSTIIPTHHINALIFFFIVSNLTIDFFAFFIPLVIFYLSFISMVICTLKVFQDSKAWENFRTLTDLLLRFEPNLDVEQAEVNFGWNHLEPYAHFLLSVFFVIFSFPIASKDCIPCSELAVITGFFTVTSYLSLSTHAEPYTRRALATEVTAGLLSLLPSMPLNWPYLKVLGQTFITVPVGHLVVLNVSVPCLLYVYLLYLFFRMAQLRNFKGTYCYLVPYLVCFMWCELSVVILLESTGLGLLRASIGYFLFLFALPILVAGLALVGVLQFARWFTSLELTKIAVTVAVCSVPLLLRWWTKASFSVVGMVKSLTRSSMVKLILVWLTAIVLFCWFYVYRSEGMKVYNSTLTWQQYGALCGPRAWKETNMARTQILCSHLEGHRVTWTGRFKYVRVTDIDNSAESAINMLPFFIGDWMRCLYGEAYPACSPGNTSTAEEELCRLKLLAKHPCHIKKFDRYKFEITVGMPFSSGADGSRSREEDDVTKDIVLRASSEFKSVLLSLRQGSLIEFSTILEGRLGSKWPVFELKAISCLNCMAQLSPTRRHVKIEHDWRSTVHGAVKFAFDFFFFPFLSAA

SMILES	IC50 [nM]
Cc1nc(N[C@H]2CC[C@H](Oc3ccc(C(F)(F)F)nc3)C2)nc2c1NC(=O)[C@H](C)N2C (single isomer, unassigned) [Compound 376]	60 to 600
Cc1nc(NCc2cnn(Cc3ccc(C(F)(F)F)nc3C(C)C)c2)nc2c1NC(=O)[C@H](C)N2C [Compound 388, (7S)-2-(((1-((2-isopropyl-6-(trifluoromethyl)pyridin-3-yl)methyl)-1H-pyrazol-4-yl)methyl)amino)-4,7,8-trimethyl-7,8-dihydropteridin-6(5H)-one]	< 60
Cc1nc(NCc2cnn(Cc3ccc(C(F)(F)F)cc3)c2)nc2c1NC(=O)[C@H](C)N2C [Compound 149, (7S)-4,7,8-trimethyl-2-(((1-(4-(trifluoromethyl)benzyl)-1H-pyrazol-4-yl)methyl)amino)-7,8-dihydropteridin-6(5H)-one]	60 to 600
Cc1nc(NCc2cnn(Cc3ccc(F)nc3)c2)nc2c1NC(=O)[C@H](C(C)C)N2C [Compound 384, (7S)-2-(((1-((6-fluoropyridin-3-yl)methyl)-1H-pyrazol-4-yl)methyl)amino)-7-isopropyl-4,8-dimethyl-7,8-dihydropteridin-6(5H)-one]	60 to 600
Cc1nc(NCc2cnn([C@@H](C)c3ccc(C(F)(F)F)nc3)c2)nc2c1NC(=O)[C@H](C)N2C [Compound 174, (7S)-4,7,8-Trimethyl-2-(((1-((S)-1-(6-(trifluoromethyl)pyridin-3-yl)ethyl)-1H-pyrazol-4-yl)methyl)amino)-7,8-dihydropteridin-6(5H)-one]	60 to 600
Cc1nc(NCc2cnn(Cc3ccc(C(F)(F)F)nc3)c2)nc2c1NC(=O)C1(CCC1)N2C [Compound 398, 4′,8′-dimethyl-2′-(((1-((6-(trifluoromethyl)pyridin-3-yl)methyl)-1H-pyrazol-4-yl)methyl)amino)-5′,8′-dihydro-6′H-spiro[cyclobutane-1,7′-pteridin]-6′-one]	60 to 600
Cc1nc(N[C@H]2C[C@H](Oc3cc(F)c(F)c(F)c3)C2)nc2c1NC(=O)[C@H](C)N2C [Compound 246, (7S)-4,7,8-trimethyl-2-((trans-3-(3,4,5-trifluorophenoxy)cyclobutyl)amino)-7,8-dihydropteridin-6(5H)-one]	60 to 600
Cc1nc(NCc2cnn([C@@H]3C[C@@H]3c3ccc(F)cc3)c2)nc2c1NC(=O)[C@H](C)N2C [Compound 154, (7S)-2-(((1-((1R,2R)-2-(4-fluorophenyl)cyclopropyl)-1H-pyrazol-4-yl)methyl)amino)-4,7,8-trimethyl-7,8-dihydropteridin-6(5H)-one]	< 60
Cc1nc(N[C@H]2C[C@H](Oc3ccc(F)nc3)C2)nc2c1NC(=O)[C@H](C)N2C [Compound 357, (7S)-2-((trans-3-((6-fluoropyridin-3-yl)oxy)cyclobutyl)amino)-4,7,8-trimethyl-7,8-dihydropteridin-6(5H)-one]	60 to 600
Cc1nc(N[C@H]2C[C@H](COc3cc(F)c(F)c(F)c3)C2)nc2c1NC(=O)[C@H](C)N2C [Compound 258, (7S)-4,7,8-trimethyl-2-((trans-3-((3,4,5-trifluorophenoxy)methyl)-cyclobutyl)amino)-7,8-dihydropteridin-6(5H)-one]	60 to 600
Cc1nc(NCc2cnn([C@@H]3CCN(c4ccc(F)cc4)C3)c2)nc2c1NC(=O)[C@H](C)N2C [Compound 170, (7S)-2-(((1-((R)-1-(4-fluorophenyl)pyrrolidin-3-yl)-1H-pyrazol-4-yl)methyl)amino)-4,7,8-trimethyl-7,8-dihydropteridin-6(5H)-one]	60 to 600
Cc1nc(NCc2cnn(Cc3ccc(F)cc3)c2)nc2c1NC(=O)[C@H](C)N2C [Compound 4, (7S)-2-(((1-(4-fluorobenzyl)-1H-pyrazol-4-yl)methyl)amino)-4,7,8-trimethyl-7,8-dihydropteridin-6(5H)-one]	60 to 600
Cc1nc(NCc2cnn(Cc3ccc(C(F)(F)F)nc3)c2)nc2c1NC(=O)[C@H](C(C)C)N2C [Compound 383, (7S)-7-isopropyl-4,8-dimethyl-2-(((1-((6-(trifluoromethyl)pyridin-3-yl)methyl)-1H-pyrazol-4-yl)methyl)amino)-7,8-dihydropteridin-6(5H)-one]	< 60
Cc1nc(C(F)(F)F)ccc1Cn1cc(CNc2nc(C)c3c(n2)N(C)[C@@H](C)C(=O)N3)cn1 [Compound 188, (S)-4,7,8-trimethyl-2-(((1-((2-methyl-6-(trifluoromethyl)pyridin-3-yl)methyl)-1H-pyrazol-4-yl)methyl)amino)-7,8-dihydropteridin-6(5H)-one]	60 to 600
Cc1ccc(Cn2cc(CNc3nc(C)c4c(n3)N(C)[C@@H](C)C(=O)N4)cn2)cn1 [Compound 173, (7S)-4,7,8-trimethyl-2-(((1-((6-methylpyridin-3-yl)methyl)-1H-pyrazol-4-yl)methyl)amino)-7,8-dihydropteridin-6(5H)-one]	600 to 3000
Cc1nc(N[C@@H]2CC[C@@H](Oc3cc(F)c(F)c(F)c3)C2)nc2c1N(C)C(=O)[C@H](C)N2C [Compound 272, (S)-4,5,7,8-tetramethyl-2-(((1R,3R)-3-(3,4,5-trifluorophenoxy)cyclopentyl)amino)-7,8-dihydropteridin-6(5H)-one]	60 to 600

SMILES	IC50 [nM]
Cc1nc(N[C@H]2C[C@H](Oc3ccc(F)cc3)C2)nc2c1N(C)C(=O)[C@H](C)N2C [Compound 250, (7S)-2-((trans-3-(4-fluorophenoxy)cyclobutyl)amino)-4,5,7,8-tetramethyl-7,8-dihydropteridin-6(5H)-one]	60 to 600
Cc1nc(N[C@H]2C[C@H](Oc3ccc(C(F)(F)F)nc3)C2)nc2c1NC(=O)[C@H](C)N2C [Compound 324, (7S)-4,7,8-trimethyl-2-((trans-3-((6-(trifluoromethyl)pyridin-3-yl)oxy)cyclobutyl)amino)-7,8-dihydropteridin-6(5H)-one]	< 60
Cc1nc(NCc2cnn(Cc3cc(C(F)(F)F)nn3C)c2)nc2c1NC(=O)[C@H](C(C)C)N2C [Compound 397, (7S)-7-Isopropyl-4,8-dimethyl-2-(((1-((1-methyl-3-(trifluoromethyl)-1H-pyrazol-5-yl)methyl)-1H-pyrazol-4-yl)methyl)amino)-7,8-dihydropteridin-6(5H)-one]	60 to 600
COc1cc(F)ccc1Cn1cc(CNc2nc(C)c3c(n2)N(C)[C@@H](C)C(=O)N3)cn1 [Compound 83, (7S)-2-(((1-(4-fluoro-2-methoxybenzyl)-1H-pyrazol-4-yl)methyl)amino)-4,7,8-trimethyl-7,8-dihydropteridin-6(5H)-one]	< 60
Cc1nc(N(C)Cc2cnn(Cc3ccc(C(F)(F)F)nc3)c2)nc2c1NC(=O)[C@H](C)N2C [Compound 403, (7S)-4,7,8-trimethyl-2-(methyl((1-((6-(trifluoromethyl)pyridin-3-yl)methyl)-1H-pyrazol-4-yl)methyl)amino)-7,8-dihydropteridin-6(5H)-one]	≥ 3000
COc1c(F)cc(Cn2cc(CNc3nc(C)c4c(n3)N(C)[C@@H](C)C(=O)N4)cn2)cc1F [Compound 46, (7S)-2-(((1-(3,5-difluoro-4-methoxybenzyl)-1H-pyrazol-4-yl)methyl)amino)-4,7,8-trimethyl-7,8-dihydropteridin-6(5H)-one]	< 60
Cc1nc(N[C@H]2C[C@@H](Sc3ccc(F)cc3)C2)nc2c1N(C)C(=O)[C@H](C)N2C [Compound 305, (7S)-2-((cis-3-((4-fluorophenyl)thio)cyclobutyl)amino)-4,5,7,8-tetramethyl-7,8-dihydropteridin-6(5H)-one]	60 to 600
Cc1nc(N[C@H]2C[C@@H](COc3ccc(C(F)(F)F)cn3)C2)nc2c1NC(=O)[C@H](C)N2C [Compound 356, (7S)-4,7,8-trimethyl-2-((cis-3-(((5-(trifluoromethyl)pyridin-2-yl)oxy)methyl)cyclobutyl)amino)-7,8-dihydropteridin-6(5H)-one]	600 to 3000
Cc1nc(N[C@H]2C[C@@H](COc3cc(F)c(F)c(F)c3)C2)nc2c1NC(=O)[C@H](C)N2C [Compound 257, (7S)-4,7,8-Trimethyl-2-((cis-3-((3,4,5-trifluorophenoxy)methyl)cyclobutyl)-amino)-7,8-dihydropteridin-6(5H)-one]	60 to 600
Cc1nc(N[C@@H]2CC[C@@H](n3ccc(C(F)(F)F)n3)C2)nc2c1NC(=O)[C@H](C)N2C (single isomer, unassigned) [Compound 311]	60 to 600
CC[C@H]1C(=O)Nc2c(C)nc(NCc3cnn(Cc4ccc(C(F)(F)F)nc4)c3)nc2N1C [Compound 186, (7S)-7-ethyl-4,8-dimethyl-2-(((1-((6-(trifluoromethyl)pyridin-3-yl)methyl)-1H-pyrazol-4-yl)methyl)amino)-7,8-dihydropteridin-6(5H)-one]	60 to 600
Cc1nc(NCc2cnn(Cc3ccnc(C(F)(F)F)c3)c2)nc2c1NC(=O)[C@H](C)N2C [Compound 207, (7S)-4,7,8-trimethyl-2-(((1-((2-(trifluoromethyl)pyridin-4-yl)methyl)-1H-pyrazol-4-yl)methyl)amino)-7,8-dihydropteridin-6(5H)-one]	60 to 600
CN1C(=O)C(C)(C)N(C)c2nc(NCc3cnn(Cc4cccnc4C(F)(F)F)c3)ncc21 [Compound 237, 5,7,7,8-Tetramethyl-2-(((1-((2-(trifluoromethyl)pyridin-3-yl)methyl)-1H-pyrazol-4-yl)methyl)amino)-7,8-dihydropteridin-6(5H)-one]	60 to 600
Cc1nc(N[C@H]2CC[C@H](Oc3ccc(C(F)(F)F)nc3)C2)nc2c1NC(=O)[C@H](C)N2C (single isomer, unassigned) [Compound 377]	< 60
CC(=O)N(Cc1cnn(Cc2ccc(C(F)(F)F)nc2)c1)c1nc(C)c2c(n1)N(C)[C@@H](C)C(=O)N2 [Compound 405, (7S)-N-((1-((6-(trifluoromethyl)pyridin-3-yl)methyl)-1H-pyrazol-4-yl)methyl)-N-(4,7,8-trimethyl-6-oxo-5,6,7,8-tetrahydropteridin-2-yl)acetamide]	≥ 3000
